From patent publication US12252524B2, “GIP/GLP1 co-agonist compounds” (Eli Lilly and Company, priority 2018, dated 2025) come the findings set out here.

Numbered stars: 1 amine (or outer) side, 2 acyl side, 3 side chain; on linkers, the order of the positions; unused ones are H or OH. Square brackets hold non-standard residues; d marks the D form. Side chains are listed from the residue outwards. Peptide text beside a SMILES is read from it. * marks the point of attachment. C20 diacid = O=C(O)CCCCCCCCCCCCCCCCCCC(=O)*; αMePhe(2-F) = C[C@](N)(Cc1ccccc1F)C(=O)O; γGlu = O=C(O)[C@H](CCC(=O)[*:2])N[*:1]; αMeF = C[C@](N)(Cc1ccccc1)C(=O)O; 2Pal = N[C@@H](Cc1ccccn1)C(=O)O; αMeL = CC(C)C[C@](C)(N)C(=O)O; AEEA = NCCOCCOCC(=O)O; Aib = CC(C)(N)C(=O)O

Experiment [1] deals with human GLP-1 receptor (GLP-1R) (Homo sapiens, UniProt P43220). Description: cAMP pharmacological functional assay in presence of casein, hGLP-1R. Format: cell-based. As to conditions: HEK293 cells expressing hGLP-1R, 0.1% Casein, geometric mean; read-out: hGLP1R cAMP Rel EC50 nM (SEM, n).
For experiment [2], the target named is T1, gastric inhibitory peptide receptor (GIPR) (Homo sapiens, UniProt P48546).
T1 sequence (P48546 22-466): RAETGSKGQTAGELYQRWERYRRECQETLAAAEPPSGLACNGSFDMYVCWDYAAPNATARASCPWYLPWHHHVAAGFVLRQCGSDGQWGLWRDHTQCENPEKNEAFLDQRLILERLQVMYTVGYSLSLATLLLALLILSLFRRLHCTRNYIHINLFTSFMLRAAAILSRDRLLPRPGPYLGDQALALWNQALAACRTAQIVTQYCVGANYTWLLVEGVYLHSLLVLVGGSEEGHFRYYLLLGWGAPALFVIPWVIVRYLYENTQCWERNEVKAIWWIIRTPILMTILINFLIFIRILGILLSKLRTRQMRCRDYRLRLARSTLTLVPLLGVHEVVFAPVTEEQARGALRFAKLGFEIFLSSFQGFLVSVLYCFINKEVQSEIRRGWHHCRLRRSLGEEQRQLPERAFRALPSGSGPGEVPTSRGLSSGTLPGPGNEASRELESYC
Description: cAMP pharmacological functional assay in presence of casein, hGIPR. In kind it is cell-based. The settings on record: HEK293 cells expressing hGIPR, 0.1% Casein, geometric mean; read-out: hGIPR cAMP Rel EC50 nM (SEM, n).

Sequence of human GLP-1 receptor (GLP-1R) (P43220 24-463): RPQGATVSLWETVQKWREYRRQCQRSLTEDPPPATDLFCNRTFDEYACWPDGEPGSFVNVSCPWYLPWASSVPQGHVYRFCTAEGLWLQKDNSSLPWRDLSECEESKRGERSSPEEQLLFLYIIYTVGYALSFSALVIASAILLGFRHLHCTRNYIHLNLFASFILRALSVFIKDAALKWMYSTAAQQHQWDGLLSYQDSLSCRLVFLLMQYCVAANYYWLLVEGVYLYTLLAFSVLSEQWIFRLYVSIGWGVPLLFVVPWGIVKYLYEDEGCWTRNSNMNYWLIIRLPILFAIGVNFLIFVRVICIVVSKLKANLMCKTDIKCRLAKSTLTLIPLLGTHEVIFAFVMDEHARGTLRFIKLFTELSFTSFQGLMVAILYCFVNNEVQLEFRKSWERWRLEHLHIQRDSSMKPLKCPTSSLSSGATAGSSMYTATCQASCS

`CC[C@H](C)[C@H](NC(=O)[C@H](CC(C)C)NC(=O)[C@H](Cc1ccc(O)cc1)NC(=O)[C@@H](CCC(=O)O)NC(=O)[C@@H](NC(=O)[C@H](Cc1ccccc1)NC(=O)[C@@H](NC(=O)C(C)(C)NC(=O)[C@H](CCC(N)=O)NC(=O)[C@H](C)NC(=O)[C@H](CCCCNC(=O)COCCOCCNC(=O)COCCOCCNC(=O)CC[C@H](NC(=O)CC[C@H](NC(=O)CCCCCCCCCCCCCCCCCCC(=O)O)C(=O)O)C(=O)O)NC(=O)[C@H](CCC(=O)O)NC(=O)[C@H](CC(=O)O)NC(=O)[C@H](CC(C)C)NC(=O)[C@](C)(CC(C)C)NC(=O)[C@@H](NC(=O)[C@H](CO)NC(=O)[C@H](Cc1c[nH]cn1)NC(=O)[C@H](CC(=O)O)NC(=O)[C@H](CO)NC(=O)[C@@H](NC(=O)[C@](C)(Cc1ccccc1F)NC(=O)[C@@H](NC(=O)CNC(=O)[C@H](CCC(=O)O)NC(=O)C(C)(C)NC(=O)[C@@H](N)Cc1ccc(O)cc1)[C@@H](C)O)[C@@H](C)O)[C@@H](C)CC)[C@@H](C)O)[C@@H](C)CC)C(=O)N[C@@H](CCC(=O)O)C(=O)NCC(=O)NCC(=O)N1CCC[C@H]1C(=O)N[C@@H](CO)C(=O)N[C@@H](CO)C(=O)NCC(N)=O` [Example 161] (H-Y[Aib]EGT[αMePhe(2-F)]TSDHSI[αMeL]LDEK([AEEA-AEEA-γGlu-γGlu-C20 diacid])AQ[Aib]TFI[dE]YLIEGGPSSG-NH2): the results for the EC50 in experiment [1] and in experiment [2] were 4.8 nM and 0.254 nM, respectively.

On to `CC[C@H](C)[C@H](NC(=O)[C@H](CC(C)C)NC(=O)[C@H](Cc1ccc(O)cc1)NC(=O)[C@@H](CCC(=O)O)NC(=O)[C@@H](NC(=O)[C@H](Cc1ccccc1)NC(=O)[C@@H](NC(=O)C(C)(C)NC(=O)[C@H](CCC(N)=O)NC(=O)[C@H](C)NC(=O)[C@H](CCCCNC(=O)COCCOCCNC(=O)COCCOCCNC(=O)CC[C@H](NC(=O)CCCCCCCCCCCCCCCCCCC(=O)O)C(=O)O)NC(=O)[C@H](CCC(=O)O)NC(=O)[C@H](CC(=O)O)NC(=O)[C@H](CC(C)C)NC(=O)[C@](C)(CC(C)C)NC(=O)[C@@H](NC(=O)[C@H](CO)NC(=O)[C@H](Cc1c[nH]cn1)NC(=O)[C@H](CC(=O)O)NC(=O)[C@H](CO)NC(=O)[C@@H](NC(=O)[C@](C)(Cc1ccccc1F)NC(=O)[C@@H](NC(=O)CNC(=O)[C@H](CCC(=O)O)NC(=O)C(C)(C)NC(=O)[C@@H](N)Cc1ccc(O)cc1)[C@@H](C)O)[C@@H](C)O)[C@@H](C)CC)[C@@H](C)O)[C@@H](C)CC)C(=O)N[C@@H](CCC(=O)O)C(=O)NCC(=O)NCC(=O)N1CCC[C@H]1C(=O)N[C@@H](CO)C(=O)N[C@@H](CO)C(=O)NCC(N)=O` [Example 167] (H-Y[Aib]EGT[αMePhe(2-F)]TSDHSI[αMeL]LDEK([AEEA-AEEA-γGlu-C20 diacid])AQ[Aib]TFI[dE]YLIEGGPSSG-NH2), for which the EC50 (as a rule, the concentration that produces a half-maximal response) in experiment [1] stood at 1.2 nM; in experiment [2], 0.617 nM.

Regarding `CC[C@H](C)[C@H](NC(=O)[C@H](CC(C)C)NC(=O)[C@H](Cc1ccc(O)cc1)NC(=O)[C@H](CCC(=O)O)NC(=O)[C@@H](NC(=O)[C@H](Cc1ccccc1)NC(=O)[C@H](CCC(=O)O)NC(=O)C(C)(C)NC(=O)[C@H](CCC(N)=O)NC(=O)[C@H](C)NC(=O)[C@H](CCCCNC(=O)COCCOCCNC(=O)COCCOCCNC(=O)CC[C@H](NC(=O)CCCCCCCCCCCCCCCCCCC(=O)O)C(=O)O)NC(=O)[C@H](CCC(=O)O)NC(=O)[C@H](CC(=O)O)NC(=O)[C@H](CC(C)C)NC(=O)[C@](C)(CC(C)C)NC(=O)[C@@H](NC(=O)[C@H](CO)NC(=O)[C@H](Cc1ccccn1)NC(=O)[C@H](CC(=O)O)NC(=O)[C@H](CO)NC(=O)[C@@H](NC(=O)[C@](C)(Cc1ccccc1F)NC(=O)[C@@H](NC(=O)CNC(=O)[C@H](CCC(=O)O)NC(=O)C(C)(C)NC(=O)[C@@H](N)Cc1ccc(O)cc1)[C@@H](C)O)[C@@H](C)O)[C@@H](C)CC)[C@@H](C)CC)C(=O)N[C@@H](CCC(=O)O)C(=O)NCC(=O)NCC(=O)N1CCC[C@H]1C(=O)N[C@@H](CO)C(=O)N[C@@H](CO)C(=O)NCC(=O)N[C@@H](C)C(=O)N1CCC[C@H]1C(=O)N1CCC[C@H]1C(=O)N1CCC[C@H]1C(=O)N[C@@H](CO)C(N)=O` [Example 156] (H-Y[Aib]EGT[αMePhe(2-F)]TSD[2Pal]SI[αMeL]LDEK([AEEA-AEEA-γGlu-C20 diacid])AQ[Aib]EFIEYLIEGGPSSGAPPPS-NH2), the EC50 is 0.638 nM in experiment [1] and over 30 nM in experiment [2].

For `CC[C@H](C)[C@H](NC(=O)[C@H](CC(C)C)NC(=O)[C@H](Cc1ccc(O)cc1)NC(=O)[C@H](CCC(=O)O)NC(=O)[C@@H](NC(=O)[C@H](Cc1ccccc1)NC(=O)[C@H](C)NC(=O)C(C)(C)NC(=O)[C@H](CCC(N)=O)NC(=O)[C@H](C)NC(=O)[C@H](CCCCNC(=O)COCCOCCNC(=O)COCCOCCNC(=O)CC[C@H](NC(=O)CCCCCCCCCCCCCCCCCCC(=O)O)C(=O)O)NC(=O)[C@H](CCC(=O)O)NC(=O)[C@H](CC(=O)O)NC(=O)[C@H](CC(C)C)NC(=O)C(C)(C)NC(=O)[C@@H](NC(=O)[C@H](CO)NC(=O)[C@H](Cc1ccc(O)cc1)NC(=O)[C@H](CC(=O)O)NC(=O)[C@H](CO)NC(=O)[C@@H](NC(=O)[C@](C)(Cc1ccccc1)NC(=O)[C@@H](NC(=O)CNC(=O)[C@H](CCC(=O)O)NC(=O)C(C)(C)NC(=O)[C@@H](N)Cc1ccc(O)cc1)[C@@H](C)O)[C@@H](C)O)[C@@H](C)CC)[C@@H](C)CC)C(=O)N[C@@H](CCC(=O)O)C(=O)NCC(=O)NCC(N)=O` [Example 102] (H-Y[Aib]EGT[αMeF]TSDYSI[Aib]LDEK([AEEA-AEEA-γGlu-C20 diacid])AQ[Aib]AFIEYLIEGG-NH2), the EC50 was found to be 0.0628 nM in experiment [1] and 0.178 nM in experiment [2].

On to `CC[C@H](C)[C@H](NC(=O)[C@H](CCCCN)NC(=O)[C@H](CC(=O)O)NC(=O)[C@H](CC(C)C)NC(=O)[C@](C)(CC(C)C)NC(=O)[C@@H](NC(=O)[C@H](CO)NC(=O)[C@H](CCCCNC(=O)COCCOCCNC(=O)COCCOCCNC(=O)CC[C@H](NC(=O)CCCCCCCCCCCCCCCCCCC(=O)O)C(=O)O)NC(=O)[C@H](CC(=O)O)NC(=O)[C@H](CO)NC(=O)[C@@H](NC(=O)[C@H](Cc1ccccc1)NC(=O)[C@@H](NC(=O)CNC(=O)[C@H](CCC(=O)O)NC(=O)C(C)(C)NC(=O)[C@@H](N)Cc1ccc(O)cc1)[C@@H](C)O)[C@@H](C)O)[C@@H](C)CC)C(=O)N[C@@H](C)C(=O)N[C@@H](CCC(N)=O)C(=O)NC(C)(C)C(=O)N[C@@H](C)C(=O)N[C@@H](Cc1ccccc1)C(=O)N[C@H](C(=O)N[C@@H](CCC(=O)O)C(=O)N[C@@H](Cc1ccc(O)cc1)C(=O)N[C@@H](CC(C)C)C(=O)N[C@H](C(=O)N[C@@H](CCC(=O)O)C(=O)NCC(=O)NCC(N)=O)[C@@H](C)CC)[C@@H](C)CC` [Example 96] (H-Y[Aib]EGTFTSDK([AEEA-AEEA-γGlu-C20 diacid])SI[αMeL]LDKIAQ[Aib]AFIEYLIEGG-NH2), for which the EC50 in experiment [1] was determined as 0.59 nM; in experiment [2], 0.712 nM.

Consider `CC[C@H](C)[C@H](NC(=O)[C@H](CC(C)C)NC(=O)[C@H](Cc1ccc(O)cc1)NC(=O)[C@@H](CCC(=O)O)NC(=O)[C@@H](NC(=O)[C@H](Cc1ccccc1)NC(=O)[C@H](CCC(=O)O)NC(=O)C(C)(C)NC(=O)[C@H](CCC(N)=O)NC(=O)[C@H](C)NC(=O)[C@H](CCCCN)NC(=O)[C@H](CCC(=O)O)NC(=O)[C@H](CC(=O)O)NC(=O)[C@H](CC(C)C)NC(=O)[C@](C)(CC(C)C)NC(=O)[C@@H](NC(=O)[C@H](CO)NC(=O)[C@H](Cc1ccc(O)cc1)NC(=O)[C@H](CC(=O)O)NC(=O)[C@H](CO)NC(=O)[C@@H](NC(=O)[C@](C)(Cc1ccccc1F)NC(=O)[C@@H](NC(=O)CNC(=O)[C@H](CCC(=O)O)NC(=O)C(C)(C)NC(=O)[C@@H](N)Cc1ccc(O)cc1)[C@@H](C)O)[C@@H](C)O)[C@@H](C)CC)[C@@H](C)CC)C(=O)N[C@@H](CCC(=O)O)C(=O)NCC(=O)NCC(=O)N1CCC[C@H]1C(=O)N[C@@H](CO)C(=O)N[C@@H](CO)C(=O)NCC(=O)N[C@@H](C)C(=O)N1CCC[C@H]1C(=O)N1CCC[C@H]1C(=O)N1CCC[C@H]1C(=O)N[C@@H](CO)C(=O)N[C@@H](CS)C(N)=O` [Example 278] (H-Y[Aib]EGT[αMePhe(2-F)]TSDYSI[αMeL]LDEKAQ[Aib]EFI[dE]YLIEGGPSSGAPPPSC-NH2; N-terminus assumed), for which the results for the EC50 in experiment [1] and in experiment [2] were 0.123 nM and 0.293 nM, respectively.

On to `CC[C@H](C)[C@H](NC(=O)[C@H](CC(C)C)NC(=O)[C@H](Cc1ccc(O)cc1)NC(=O)[C@H](CCC(=O)O)NC(=O)[C@@H](NC(=O)[C@H](Cc1ccccc1)NC(=O)[C@H](C)NC(=O)[C@H](CO)NC(=O)[C@H](CCC(N)=O)NC(=O)[C@H](C)NC(=O)[C@H](CCCCNC(=O)COCCOCCNC(=O)COCCOCCNC(=O)CC[C@H](NC(=O)CCCCCCCCCCCCCCCCCCC(=O)O)C(=O)O)NC(=O)[C@H](CCCCN)NC(=O)[C@H](CC(=O)O)NC(=O)[C@H](CC(C)C)NC(=O)[C@H](CC(C)C)NC(=O)[C@@H](NC(=O)[C@H](CO)NC(=O)[C@H](Cc1ccc(O)cc1)NC(=O)[C@H](CC(=O)O)NC(=O)[C@H](CO)NC(=O)[C@@H](NC(=O)[C@H](Cc1ccccc1)NC(=O)[C@@H](NC(=O)CNC(=O)[C@H](CCC(=O)O)NC(=O)C(C)(C)NC(=O)[C@@H](N)Cc1ccc(O)cc1)[C@@H](C)O)[C@@H](C)O)[C@@H](C)CC)[C@@H](C)CC)C(=O)N[C@@H](CCC(=O)O)C(=O)NCC(=O)NCC(=O)N1CCC[C@H]1C(=O)N[C@@H](CO)C(=O)N[C@@H](CO)C(=O)NCC(=O)N[C@@H](C)C(=O)N1CCC[C@H]1C(=O)N1CCC[C@H]1C(=O)N1CCC[C@H]1C(=O)N[C@@H](CO)C(N)=O` [Example 263] (H-Y[Aib]EGTFTSDYSILLDKK([AEEA-AEEA-γGlu-C20 diacid])AQSAFIEYLIEGGPSSGAPPPS-NH2), for which the values for the EC50 in experiment [1] and in experiment [2] were 0.0785 nM and 0.317 nM, respectively.
